In patent US10508111B2, “6-[5-amino-6-(2-ethoxyethoxy)-imidazo[4,5-B]pyridin-3-yl]-nicotinonitrile derivatives and their use as IRAK inhibitors” (GALAPAGOS NV, priority 2015, dated 2019):

Columns and labels:
human IRAK-4 = biological target: T1, human IRAK-4 (Homo sapiens, UniProt Q9NWZ3); assay: IC50 determination for human IRAK-4, radioactive filter plate assay; type: biochemical; conditions: RIP140 substrate, 1 μM ATP + [γ-33P]ATP, 30° C., 45 min; read-out: hIRAK-4 IC50
T1 construct: purchased Carna Biosciences 09-145
T1 sequence (Q9NWZ3 1-460): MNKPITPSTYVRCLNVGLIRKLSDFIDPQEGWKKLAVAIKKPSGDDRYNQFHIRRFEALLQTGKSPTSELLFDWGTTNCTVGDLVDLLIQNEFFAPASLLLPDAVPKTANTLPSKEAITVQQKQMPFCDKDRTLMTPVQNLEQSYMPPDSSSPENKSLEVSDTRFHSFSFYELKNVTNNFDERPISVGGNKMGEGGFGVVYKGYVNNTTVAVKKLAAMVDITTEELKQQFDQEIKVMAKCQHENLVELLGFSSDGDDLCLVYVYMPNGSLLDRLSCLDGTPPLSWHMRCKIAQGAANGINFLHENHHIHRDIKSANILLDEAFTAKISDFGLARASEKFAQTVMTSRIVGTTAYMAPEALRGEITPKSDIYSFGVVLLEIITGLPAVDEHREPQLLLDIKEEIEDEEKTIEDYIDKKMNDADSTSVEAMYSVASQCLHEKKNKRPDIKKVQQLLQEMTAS
Method: The IC50 value for IRAK-4 is determined in a radioactive filter plate assay. The principle of the assay consists in the measurement of incorporated ^33P into the RIP140 substrate upon phosphorylation by the enzyme IRAK-4 using [γ-^33P]ATP and ATP. Unincorporated ^33P is removed by loading the samples on a filter plate (using a harvester, PerkinElmer) and 6 subsequent washing steps. Incorporated ^33P in RIP140 is measured by a scintillation counter (Topcount, PerkinElmer) after addition of MicroScint™-20 (PerkinElmer, 6013621) to the filter plates.
5 μL of a water dilution series of test compound (starting from 20 μM or 6.6 μM highest concentration), from a 100% DMSO stock solution, 1/5 dilution, is added to the wells (final DMSO concentration of 1% in reaction assay). IRAK-4 (Carna Biosciences, 09-145) and RIP140 (SEQ ID1, cf. Table VII) are used at a final concentration of 10 ng/mL and 4 μM, respectively. The enzyme and substrate are diluted in 25 mM Tris pH 7.5, 0.025% Triton X-100, 5 mM MnCl2, and 2 mM DTT to a total volume of 11 μL. The reaction is started by addition of 9 μL of 1 μM ATP (Sigma, A6419-5G)+0.25 μCi [γ-^33P]ATP (PerkinElmer, NEG602K001MC), diluted in the same buffer as enzyme and substrate. The mixture is incubated at 30° C. for 45 min. The reaction is terminated by adding 25 μL of 150 mM phosphoric acid (VWR, 1.00573.1000). Samples are transferred to filter plates and incorporated radioactivity is measured using a scintillation counter.
10 μM staurosporine (1% DMSO) is used as positive control (100% inhibition); vehicle (water+1% DMSO) as negative control (0% inhibition).

[1] = tested on: TNFα triggered IL-6 release in SW1353 cells; assay: SW1353 cellular selectivity assay, TNFα trigger, IL-6 ELISA readout; type: cell-based, human; conditions: TNFα trigger 10 ng/mL; for IC50: Homo sapiens; for TNFα trigger IL-6 PIN at 20 μM: percent inhibition at 20 μM compound
Text: The aim of this assay is to evaluate the selectivity of compounds of the invention for the activated TLR/IRAK-4 pathway in an in vitro human cellular assay setting. SW1353 cells are from a chondrocytic cell line and are responsive to both the interleukin 1 (IL-1) and the TNFα cytokine triggers. Both cytokine triggers induce the expression of interleukin 6 (IL-6) and MMP13 by these cells. IL-6 and MMP13 releases are used as readouts in this assay and represent a measure for the level of inhibition of the TLR/IRAK-4 pathway by the tested compound.
SW1353 cells are cultured in DMEM supplemented with 10% FBS and 1% Penicillin/Streptomycin. Cells are incubated at 37° C. in a humidified atmosphere of 5% CO2 and subcultured twice a week. During subculturing, trypsin-EDTA is used to detach the cells, followed by a neutralization step with cell culture medium. After centrifugation (1,000 rpm during 5 min), the pellet is resuspended in cell culture medium and cells are counted using an automated cell counter (Invitrogen Countess™).
Cells are used at passage 16 and plated at a density of 15,000 cells per well in 120 μL cell culture medium in 96-well culture plates. Cells are allowed to attach during overnight incubation.
SW1353 cells are pre-incubated with test compound by addition of 15 μL of 10× concentrated compound solution for 2 h at 37° C. and 5% CO2. The compounds are tested at different concentrations and prepared by 3-fold serial dilutions from the 10 mM stock solution in DMSO followed by a 1/50 dilution step in cell culture medium. Final test concentrations in the assay start from 20 μM, with subsequent 3-fold serial dilutions with equal final DMSO concentrations of 0.2%. After the compound pre-incubation step, the SW1353 cells are triggered by addition of 15 μL of 10× concentrated IL-1f (Peprotech, 200-01B) or TNFα trigger (Peprotech, 300-01A) to the wells with final assay volume of 150 μL per well and final trigger concentration of 1 ng/mL and 10 ng/mL, respectively. Negative controls are adjusted with equal DMSO concentrations without trigger. The assay plates are then incubated in a humidified incubator at 37° C. and 5% CO2. Cell supernatants are harvested 24 h and 48 h later by transferring the cell medium into a V-bottom polypropylene 96-well plate and stored at −80° C. until ELISA readout.
The levels of secreted IL-6 in the cell supernatants are quantified in an enzyme-linked immunosorbent assay (ELISA). […] Luminescence of the converted substrate is measured with a Luminoskan™ Ascent luminometer.
All controls are measured within the linear range of the human IL-6 and MMP13 standard curve of the ELISA. […]

Compound | IC50 (human IRAK-4) [nM] | IC50 [1] [nM] | TNFα trigger IL-6 PIN at 20 μM [1]
N#Cc1ccc(-n2cnc3cc(OCCOCCO)c(NC4CCOCC4)nc32)nc1 [Compound 1, 6-[6-[2-(2-hydroxy-ethoxy)-ethoxy]-5-(tetrahydro-pyran-4-ylamino)-imidazo[4,5-b]pyridin-3-yl]-nicotinonitrile] | 6.35 | > 20000 | [54%]
C[C@]1(O)CC[C@@H](Nc2nc3c(cc2OCCOCCO)ncn3-c2ccc(C#N)cn2)CC1 [Compound 12, 6-[6-[2-(2-hydroxyethoxy)ethoxy]-5-[((cis-1,4)-4-hydroxy-4-methylcyclohexyl)amino]imidazo[4,5-b]pyridin-3-yl]pyridine-3-carbonitrile] | 0.95 | > 20000 | [22%]
